From EP0739343B1, “WATER SOLUBLE ONIUM SALT OF TAXO-DITERPENOID” (THE SCRIPPS RESEARCH INSTITUTE, priority 1994, dated 1995)

Assays:
[1] = Critical aggregation concentration by UV absorption (optical density) at 340 nm; assay type: physicochemical; conditions: buffered solutions, absorption at 340 nm
[2] = Stability and taxol release in the solid state and aqueous media, assayed by HPLC; assay type: physicochemical
Protocol: (§1) Due to a difference in retention time using our standard HPLC conditions (see Fig. 1) and differing ultraviolet absorption maxima (1280/1254 = 1.6 for 2 and 0.3 for 1), the stability of 2 was easily assayed by HPLC (Fig. 1). […] In phosphate buffered saline (PBS) or ammonium acetate - phosphate buffer systems of pH 6.0 to 7.3, 2 is stable at 25 °C for over 21 days. Taxol-2'-MPT (2) is, however, unstable in 5% HCl (pH 1.1) and brine.
(§2) Under these conditions 20% of total is recovered. More particularly, Taxol-2'-MPT (2) was dissolved in the aqueous system with the aid of sonication for five minutes. Aliquots were then removed at the times shown and partitioned into methylene chloride to quench the reaction. Samples were then analyzed using a Waters Maxima HPLC instrument equipped with an autoinjector (3.9x300 mm C18 column equipped with a precolumn. The flow rate was 1.5 mL/minute. The eluent gradient A-B extended over 30 minutes. "A" was 80% 80mM ammonium acetate, pH 6.0. "B" was 100% methanol. An ultraviolet diode array detector was employed. The ratio of compound 2 (Rf 16.2 min.) to taxol (compound 1, Rf 16.8 min.) remaining was determined from the relative areas of the peaks after normalization with previously determined calibration curves.

tubulin = assay: Tubulin (microtubule) polymerization-depolymerization measurement, turbidity at 340 nm; assay type: biochemical; conditions: for calcium chloride promoted depolymerization is suppressed: tubulin 1.0 mg/mL, 1.0 mM GTP, compound 10^-6 M, CaCl2 0.25 mM added after 20 minutes, 37°C
Protocol: Tubulin polymerization-depolymerization measurements are illustrate in Figure 3. Negative controls are shown with triangles; positive taxol controls are shown with diamonds; and taxol-2'-MPT, i.e., compound 2 is shown with dots.
More particularly, measurement were performed in 96 well plates at 37°C following the protocol of R. Merlock and W. Wrasidlo (Analytical Biochemistry 1993, in press). Calcium chloride addition is indicated by the arrow. In each case, 1.0 mM GTP was used to promote the initial polymerization of tubulin. Negative control employed tubulin (1.0 mg/mL) alone, CaCl2 (0,25 mM) added after 20 minutes. Positive taxol control employed tubulin (1.0 mg/mL) with taxol (10^-6M) and CaCl2 (0.25mM) added after 20 minutes. The experimental taxol-2'-MPT employed tubulin (1.0 mg/mL) with taxol-2'-MPT (10^-6) and CaCl2 (0.25 mM) added after 20 minutes. Turbidity was measured as optical density at 340 nm using a microplate reader (Molecular Devices Thermomax).

[3] = Taxol release from the prodrug in plasma, methylene chloride extraction and HPLC; assay type: in vitro ADME, human
Protocol: as §1, §2

[4] = Metabolic study using the tritiated compound; assay type: in vivo; conditions: tritiated 2
albumin = albumin (Homo sapiens, UniProt P02768); conditions: serum; cited from earlier work
physchem = conditions: water
Protocol: The solubility and partition coefficient data for 2 and taxol were determined using an HPLC method.
Solubility was found by forming a solution in water with the aid of sonication for five minutes, centrifugation of the samples, and injection of the supernatant. The values reported were normalized using calibration curves constructed for both compounds by preparing known concentrations in the range 1 x 10^-6 to 1 x 10^-3 M in methylene chloride and subjecting to HPLC analysis under the same conditions. […] Partition coefficients were determined by dissolving the compound in the organic phase, shaking the resulting solution with water for ten minutes, and analyzing each phase by HPLC as above.

[5] = in water, 5% dextrose, and 1.5% saline

albumin, sequence (P02768 25-609): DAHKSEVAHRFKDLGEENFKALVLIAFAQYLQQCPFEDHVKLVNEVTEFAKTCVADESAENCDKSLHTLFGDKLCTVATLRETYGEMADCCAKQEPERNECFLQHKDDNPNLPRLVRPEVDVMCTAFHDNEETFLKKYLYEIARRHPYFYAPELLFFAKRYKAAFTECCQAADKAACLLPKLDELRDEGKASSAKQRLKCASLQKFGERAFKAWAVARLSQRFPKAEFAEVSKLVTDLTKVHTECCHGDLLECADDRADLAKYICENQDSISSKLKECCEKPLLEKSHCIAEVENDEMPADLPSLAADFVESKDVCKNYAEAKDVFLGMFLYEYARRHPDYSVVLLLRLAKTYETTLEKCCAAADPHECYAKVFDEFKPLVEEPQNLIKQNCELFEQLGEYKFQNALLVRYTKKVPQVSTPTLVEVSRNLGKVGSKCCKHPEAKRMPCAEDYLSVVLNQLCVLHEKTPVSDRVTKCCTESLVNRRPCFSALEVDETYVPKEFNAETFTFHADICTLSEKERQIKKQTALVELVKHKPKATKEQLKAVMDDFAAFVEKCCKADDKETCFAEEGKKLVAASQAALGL

SMILES | critical concentration (exponential increase in optical density) [1] [µM] | stability ([2]; 5% HCl (pH 1.1) and brine) | stability in the solid state ([2]; -80 °C to 25 °C, regardless of inert atmosphere) | stable for ([2]; PBS or ammonium acetate - phosphate buffer systems of pH 6.0 to 7.3, 25 °C) | begins to exhibit slow degradation after [2, 5] [days] | stability [2, 5] | taxol release ([2]; sterile water, pH 6.2 phosphate buffered saline, or 5% dextrose, 25°C, period of 11 minutes) | effect on tubulin-microtubule equilibria (tubulin; buffered aqueous environment of the assay, 2 not converted to taxol) | calcium chloride promoted depolymerization is suppressed (tubulin) | stability when incubated with human plasma ([3]; 37°C, human plasma) | complete conversion of 2 into taxol (1) ([3]; plasma treated with compound 2, methylene chloride extraction) [min] | excreted through the kidneys [4] [%] | bind to albumin in sera (albumin) | solubility (physchem) [µM] | Partition Coefficient [octanol]/[water] | microtubule stabilization (tubulin; taxol recovered from human plasma treated with 2)
CC(=O)O[C@H]1C(=O)[C@@]2(C)[C@H]([C@H](OC(=O)c3ccccc3)[C@]3(O)C[C@H](OC(=O)[C@H](Oc4cccc[n+]4C)[C@@H](NC(=O)c4ccccc4)c4ccccc4)C(C)=C1C3(C)C)[C@]1(OC(C)=O)CO[C@@H]1C[C@@H]2O [compound 2, Taxol-2'-MPT] | 400 | unstable | completely stable | over 21 days | 4 | stable for several days | no taxol release is observed | does not affect the tubulin-microtubule equilibria | not | breaks down rapidly | ≤ 10 | 5 | – | – | – | –
CC(=O)O[C@H]1C(=O)[C@@]2(C)[C@H]([C@H](OC(=O)c3ccccc3)[C@]3(O)C[C@H](OC(=O)[C@H](O)[C@@H](NC(=O)c4ccccc4)c4ccccc4)C(C)=C1C3(C)C)[C@]1(OC(C)=O)CO[C@@H]1C[C@@H]2O [taxol, Taxol] | – | – | – | – | – | – | – | – | suppressed | – | – | – | ca. 85% | < 1.5 | > 10000 | exhibited the expected microtubule stabilization
